Test results from ChEMBL document CHEMBL3797054, “Discovery of a series of 8-(2,3-dihydro-1,4-benzoxazin-4-ylmethyl)-2-morpholino-4-oxo-chromene-6-carboxamides as PI3Kβ/δ inhibitors for the treatment of PTEN-deficient tumours” (Bioorg Med Chem Lett, 2016).

Legend:
[1] = Intrinsic clearance in human hepatocytes assessed per million cells; format: ADME, cell-based, Hepatocyte; conditions: read-out: CLH
[2] = AUC in hairy mouse at 30 umol/kg, po; format: ADME, organism-based; conditions: in vivo
[3] = physchem; conditions: buffer, pH 7.4
[4] = in vitro; conditions: human, Caco-2
[5] = Clearance in hairy mouse blood at 5 umol/kg, iv and 30 umol/kg, po; format: ADME, organism-based
[6] = Volume of distribution at steady state in hairy mouse blood at 5 umol/kg, iv and 30 umol/kg, po; format: ADME, organism-based; conditions: read-out: Vdss
[7] = Oral bioavailability in hairy mouse blood at 30 umol/kg; format: ADME, organism-based
[8] = Clearance in dog blood at 4 umol/kg, iv and 10 umol/kg, po; format: ADME, organism-based, Canis lupus familiaris
[9] = Volume of distribution at steady state in dog blood at 4 umol/kg, iv and 10 umol/kg, po; format: ADME, organism-based, Canis lupus familiaris; conditions: read-out: Vdss
[10] = Oral bioavailability in dog blood at 10 umol/kg; format: ADME, organism-based, Canis lupus familiaris
[11] = tested on: Hepatocyte; assay: Intrinsic clearance in mouse hepatocytes assessed per million cells; format: ADME, cell-based
[12] = Intrinsic clearance in dog hepatocytes assessed per million cells; format: ADME, cell-based, Canis lupus familiaris, Hepatocyte

Compound | hepatocyte CLint [1] [µL/min/1e6 cells] | AUC [2] [µM·h] | logD [3] | Papp A→B at 2 h, 10 µM [4] [×10⁻⁶ cm/s] | further results
CN(C)C(=O)c1cc(CN2CCOc3ccc(F)cc32)c2oc(N3CCOCC3)cc(=O)c2c1 | 12 | – | 1.9 | – | –
CC(c1cc(C(=O)N(C)C)cc2c(=O)cc(N3CCOCC3)oc12)N1CCOc2c(F)cc(F)cc21 (configuration not stated) | – | – | 2 | – | –
C[C@@H]1CN(c2cc(=O)c3cc(C(=O)N(C)C)cc(CN4CCOc5c(F)cccc54)c3o2)CCO1 | < 3 | 7.3 | 2 | 28 | –
CN(C)C(=O)c1cc(CN2CCOc3c(F)cccc32)c2oc(N3CCOCC3)cc(=O)c2c1 | < 1 | 3.9 | 1.7 | 6.5 | clearance [5]: 49 mL/min/kg; Vd [6]: 1.9 L/kg; bioavailability [7]: 47%; clearance [8]: 13 mL/min/kg; Vd [9]: 1.6 L/kg; bioavailability [10]: 63%; hepatocyte CLint [11]: 21 µL/min/1e6 cells; hepatocyte CLint [12]: 4 µL/min/1e6 cells
C[C@@H]1CN(c2cc(=O)c3cc(C(=O)N4CCOCC4)cc(CN4CCOc5c(F)cccc54)c3o2)CCO1 | < 3 | 1 | – | – | –
C[C@@H]1CN(c2cc(=O)c3cc(C(=O)N(C)C)cc(CN4CCOc5ccc(F)cc54)c3o2)CCO1 | 15 | – | 2.3 | – | –
C[C@@H]1CN(c2cc(=O)c3cc(C(=O)N(C)C)cc(CN4CCOc5c(F)cc(F)cc54)c3o2)CCO1 | 8 | – | 2.3 | 25 | –
CN(C)C(=O)c1cc(CN2CCOc3c(F)cc(F)cc32)c2oc(N3CCOCC3)cc(=O)c2c1 | 7 | 4.4 | 2.1 | 9 | –
C[C@@H]1CN(c2cc(=O)c3cc(C(=O)N4CCOCC4)cc(CN4CCOc5ccc(F)cc54)c3o2)CCO1 | 4 | 2.8 | 2 | 11 | –
C[C@@H]1CN(c2cc(=O)c3cc(C(=O)N4CCOCC4)cc(CN4CCOc5c(F)cc(F)cc54)c3o2)CCO1 | < 3 | – | – | – | –

The next lines start with results.

hepatocyte CLint [1] [µL/min/1e6 cells] | AUC [2] [µM·h] | logD [3] | Papp A→B at 2 h, 10 µM [4] [×10⁻⁶ cm/s] | Compound | further results
5 | 15.3 | 2.7 | 55 | C[C@@H]1CN(c2cc(=O)c3cc(C(=O)N(C)C)cc(CN(C)c4cc(F)cc(F)c4)c3o2)CCO1 | –
14 | – | 2.2 | 14 | COCCN(Cc1cc(C(=O)N(C)C)cc2c(=O)cc(N3CCO[C@H](C)C3)oc12)c1cc(F)cc(F)c1 | –
< 3 | – | 1.5 | – | CN(C)C(=O)c1cc(CN(CC#N)c2cc(F)cc(F)c2)c2oc(N3CCOCC3)cc(=O)c2c1 | –
8 | 2.4 | 2.1 | 11 | COCCN(Cc1cc(C(=O)N(C)C)cc2c(=O)cc(N3CCOCC3)oc12)c1cc(F)cc(F)c1 | –
< 3 | – | 1.8 | – | CN(C)C(=O)c1cc(CN(CCC#N)c2cc(F)cc(F)c2)c2oc(N3CCOCC3)cc(=O)c2c1 | –
< 5 | 4.9 | – | – | CN(C)C(=O)c1cc(CN(C)c2cc(F)cc(F)c2)c2oc(N3CCOCC3)cc(=O)c2c1 | –
